The text below walks through data of patent US5202417A, “60-amino-acid polypeptide” (Takeda Chemical Industries, Ltd., priority 1989, dated 1993).

Data set [1] is described as follows: isoelectric point of the purified polypeptide. The format is physicochemical.
Data set [2] deals with anti-PS2 antibodies. The experiment in a line: immunoreactivity to anti-PS2 antibodies. It counts as binding.
Data set [3] has as its system IgG fraction containing anti-hEGF antibody. The experiment in a line: enzyme immuno assay (EIA) for human EGF, plate sensitized with IgG fraction containing anti-hEGF antibody. The format is binding, rabbit. The settings on record: culture solutions of MCF7, MKN-45 and KATO-III; different from EGF. An excerpt:
In order to examine the relationship between the MCF7 cells thus secreting various growth factors and epidermal growth factor (hereinafter referred to as EGF) which is a kind of growth factor, we established an enzyme immuno assay (hereinafter referred to as EIA) which can assay human EGF, and tried to determine it in the culture solutions of MCF7 and human gastric cancer cells MKN-45 and KATO-III. […] It is conceivable that this substance was detected because another antibody was present in the enzyme immuno assay in addition to an antibody against EGF.
An assay system used for detecting the polypeptide of the present invention was prepared in the following manner.
200 μg/ml of an IgG fraction (purified from rabbit serum) containing anti-hEGF antibody was added to 50 mM of Tris-HCl (pH 8.0), and the mixture was poured to a microplate having 96 wells (Sumitomo Bakelite Co.) in an amount of 100 μl/well. After the reaction was conducted at 37° C. for 3 hours, the solution was discarded. Buffer A was further added thereto and blocking was carried out. […]
A plate was washed once with 200 μl/well of buffer A just prior to the use thereof. […] The resultant product was transferred to a Dynamic™ microfluor (for fluorescent enhancer), and the fluorescence was measured with an immunoreader (365 nm excitation, 415 nm fluorescence measurement). […]

“immunoreactive polypeptide: 60-amino-acid polypeptide, N-terminus EAQ, secreted by cancer cells MCF-7, MKN-45 or KATO-III; part of the PS2 precursor protein (EAQTETCTVAPRERQNCGFPGVTPSQCANKGCCFDDTVRGVPWCFYPNTIDVPPEEECEF; UniProt P04155 25-84, looked up)” displayed an isoelectric point in data set [1] of 4.3. In addition, in data set [2], the “immunoreactivity to anti-PS2 antibodies” value is recorded as “immunoreactive to anti-PS2 antibodies”. Besides, the “immunoreactivity in the EIA” value in data set [3] is “immunoreactive to the EIA”.
